Results reported in patent publication US7625887B2, “Receptor agonists” (Takeda Pharmaceutical Company Limited, priority 2003, dated 2009).

Legend:
[1] = test system: rat intestine primary culture cells; assay: GLP-1 secretion from rat intestine primary culture cells; assay type: cell-based; conditions: test compound 20 μM, 150 min
Experimental: Terminal ileum and colon mucous membrane were removed from rat (Wistar, male, Charles River Japan, Inc.) and subjected to an enzyme treatment to give a cell dispersion according to the following method.
The enzyme solution used was obtained by dissolving 5 mg/ml Collagenase (Sigma), 5 mg/ml Hyaluronidase (Sigma) and 0.5 mg/ml DNaseI (Sigma) in a medium. The medium used was Dulbecco's Modified Eagle Medium (DMEM, Invitrogen) supplemented with 4.5 g/l Glucose, 5% FBS (Invitrogen), 100 units/ml Penicillin (Invitrogen), 100 μg/ml Streptomycin (Invitrogen), 50 μg/ml Gentamicin (Invitrogen) and 20 mM Hepes (pH 7.3). After digestion by the enzyme solution at 37° C., the tissue sections were prepared into dispersed cells by passing through a pipette 7 times and the cells were collected. The collected cells were washed with a buffer (incubation buffer) obtained by adding 5.5 mM Glucose and 0.1% BSA to a modified Krebs-Ringer bicarbonate buffer (KRBH, 116 mM NaCl, 4.7 mM KCl, 1.2 mM KH2PO4, 1.2 mM MgSO4, 2.5 mM CaCl2, 25 mM NaHCO3, 24 mM HEPES, pH 7.3), and preincubated at 37° C. under 5% CO2 for 30 min. 0.1 μM Phorbol ester (Wako), 1% DPPIV inhibitor (Linco) and a test compound were added to the above-mentioned incubation buffer, and the obtained buffer was added to the cells after the aforementioned preincubation and incubated for 150 min. The culture supernatant was collected and cryopreserved. The concentration of GLP-1 released in the culture supernatant was measured using an ELISA kit (Linco).

rat TGR5 = target: T1, rat TGR5 (Rattus norvegicus, UniProt Q80T02); assay: cAMP production increasing activity in rat type TGR5 expressing CHO cells; assay type: cell-based; conditions: 0.5 h, read-out: cAMP producing activity (control %)
T1 construct: expressed in transfected cells; host or cells: CHO cells
T1 sequence (Q80T02 1-329): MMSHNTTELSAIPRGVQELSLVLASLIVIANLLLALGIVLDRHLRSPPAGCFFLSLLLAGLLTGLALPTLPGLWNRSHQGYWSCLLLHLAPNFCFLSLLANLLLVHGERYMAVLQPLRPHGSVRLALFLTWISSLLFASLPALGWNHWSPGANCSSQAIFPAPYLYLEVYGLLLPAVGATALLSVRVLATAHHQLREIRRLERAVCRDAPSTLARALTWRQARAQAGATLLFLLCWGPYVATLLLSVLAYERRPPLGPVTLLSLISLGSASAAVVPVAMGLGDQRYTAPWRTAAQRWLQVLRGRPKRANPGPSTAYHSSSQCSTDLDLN
Experimental: (§1) After culture, the cells were detached with 0.5 mM EDTA/PBS, washed with PBS, and suspended in Buffer 1 (HBSS+0.1% BSA, 25 mM HEPES pH 7.3, 0.5 mM IBMX) at a density of 1×10^7 cells/ml. The obtained cell suspension (460 μl), anti-cAMP acceptor beads (23 μl) of AlphaScreen cAMP assay kit (Perkin Elmer) and Buffer 1 (667 μl) were mixed and dispensed to a white 96 well plate (Costar) by 10 μl. Then, a test compound diluted with Buffer 1 was added to each well by 10 μl. At this time, one row of the plate was free of the cell suspension but added with anti-cAMP acceptor beads (9 μl) and Buffer 1 (441 μl) alone, and serial dilutions of cAMP were added instead of the test compound and used as the standard. A mixture of the cell suspension and the test compound contained in the plate was allowed to react at room temperature for 30 min. […] The plate was shaken at room temperature for 2.5 hrs and fluorescence intensity was measured by Fusion α (Parkin Elmer), and the cAMP concentration of each well was calculated using the cAMP standard on each plate.

human TGR5 [2] = target: T2, human TGR5 (Homo sapiens, UniProt Q8TDU6); assay: cAMP production increasing activity in human TGR5 expressing CHO cells; assay type: cell-based; conditions: read-out: EC50 value (concentration necessary to make the cAMP production amount 50%)
T2 construct: expressed in transfected cells; host or cells: CHO cells
T2 sequence (Q8TDU6 1-330): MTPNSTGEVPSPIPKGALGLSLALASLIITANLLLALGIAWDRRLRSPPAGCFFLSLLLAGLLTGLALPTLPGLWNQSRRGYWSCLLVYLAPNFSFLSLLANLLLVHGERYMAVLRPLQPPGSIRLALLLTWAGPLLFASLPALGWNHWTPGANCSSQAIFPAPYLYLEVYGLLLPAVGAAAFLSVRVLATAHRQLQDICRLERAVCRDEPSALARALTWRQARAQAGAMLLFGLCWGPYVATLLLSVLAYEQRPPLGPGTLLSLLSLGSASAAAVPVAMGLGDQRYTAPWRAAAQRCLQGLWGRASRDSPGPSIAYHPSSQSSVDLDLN

[3] = test system: mock CHO cells free of human TGR5 expression; assay: cAMP production increasing activity in mock CHO cells free of human TGR5 expression; assay type: cell-based; conditions: test compounds 2 μM, average of 3 groups
Experimental: (§2) As the assay buffer, Hank's balanced salt solution (HBSS, Invitrogen) supplemented with 0.1% bovine serum albumin (BSA, Sigma) and 0.2 mM 3-isobutyl-1-methylxanthine (IBMX, Sigma) was used. The cells were washed twice with the assay buffer and preincubated at 37° C. for 30 min. The cells were washed twice, and test compound samples (10 μM) diluted with the assay buffer to various concentrations were added. The cells were incubated at 37° C. for 20 min. The culture supernatant was discarded, and the cAMP production amount was measured using a cAMP Screen System (ABI).

human TGR5 [4] = target: T2, human TGR5; assay: cAMP production increasing activity in human TGR5 expressing CHO cells; assay type: cell-based; conditions: test compound 1 μM, 30 min; 1 μM lithocholic acid = 100%, no addition = 0%; average of 3 groups
Experimental: As the assay buffer, Hank's balanced salt solution (HBSS, Invitrogen) supplemented with 0.1% bovine serum albumin (BSA, Sigma) and 0.5 mM 3-isobutyl-1-methylxanthine (IBMX, Sigma) was used. A test compound sample (1 μM) diluted with the assay buffer was added to the cells. The cells were incubated at 37° C. for 30 min. and the supernatant was suctioned. The intracellular cAMP amount increased by the stimulation of the test compound was quantitatively determined using a HitHunter™ EFC Cyclic AMP Chemiluminescence Assay Kit (ABI) kit.

rabbit TGR5 = target: T3, rabbit TGR5 (Oryctolagus cuniculus, UniProt Q862A8); assay: cAMP production increasing activity in rabbit TGR5 expressing CHO cells; assay type: cell-based; conditions: Experimental Example 6; 2 μM; 10 μM lithocholic acid = 100%; average of 3 groups
T3 construct: expressed in transfected cells; host or cells: CHO cells
T3 sequence (Q862A8 1-330): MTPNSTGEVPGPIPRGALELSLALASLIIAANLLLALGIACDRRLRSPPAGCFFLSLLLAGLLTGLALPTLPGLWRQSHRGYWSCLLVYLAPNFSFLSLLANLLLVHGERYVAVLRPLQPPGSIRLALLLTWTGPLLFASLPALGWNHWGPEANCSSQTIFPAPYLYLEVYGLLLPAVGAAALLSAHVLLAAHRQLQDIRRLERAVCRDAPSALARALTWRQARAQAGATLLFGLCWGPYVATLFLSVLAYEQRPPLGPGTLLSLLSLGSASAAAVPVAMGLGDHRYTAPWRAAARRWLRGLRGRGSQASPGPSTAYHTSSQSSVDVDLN
Experimental: as §2, with “twice” for “twice,”, “(2” for “(10”, “buffer” for “buffer to various concentrations”

NCI-H716 cells = assay: intracellular cAMP production increasing action in NCI-H716 cells; assay type: cell-based, human; conditions: 10 μM, 2 hrs; production amount in TLCA (50 μM) was 100%; Base 11
Experimental: NCI-H716 (ATCC) was suspended in a medium (Dulbecco's Modified Eagle Medium (DMEM, Invitrogen) supplemented with 10% fetal bovine serum (Invitrogen), 100 U/ml penicillin and 100 μg/ml streptomycin), seeded in a 96 well plate, cultured for 2 days and used for cAMP production assay. As a cAMP assay buffer, modified Krebs-Ringer bicarbonate buffer (KRBH, 116 mM NaCl, 4.7 mM KCl, 1.2 mM KH2PO4, 1.2 MM MgSO4, 2.5 mM CaCl2, 25 mM NaHCO3, 24 mM HEPES pH 7.3), supplemented with glucose 5.5 mM, bovine serum albumin (BSA) 0.1%, and 3-isobutyl-1-methylxanthine (IBMX, Sigma) 1 mM, was used. The cells were washed once with cAMP assay buffer. Bile acids (50 μM) diluted with cAMP assay buffer or the compounds of the present invention (10 μM) were added thereto and the cells were incubated for 2 hrs. The culture supernatant was discarded, and the cAMP production amount was measured by cAMP Screen System (ABI). In the Table, Base means non-addition of a test compound.

guinea pig TGR5 = assay: cAMP production increasing activity in guinea pig TGR5 expressing CHO cells; assay type: cell-based; conditions: test compound 2 μM; 10 μM lithocholic acid = 100%; average of 3 groups
Experimental: as §1, with “The guinea pig type TGR5 expressing CHO cells were seeded in one 150 cm^2 flask at 1×10^7 cells, and cultured overnight at 37° C., 5% CO2. After” for “After”

[5] = Experimental Example 5, Base 0.19

Row | SMILES | cAMP production increasing activity (control %) (human TGR5 [4]) | cAMP production increasing activity (control %) (rabbit TGR5) | GLP-1 (% relative to non-addition) [1] | activation at 2 µM (rat TGR5) [%] | EC50 (human TGR5 [2]) [µM] | cAMP production increasing activity ([3]; Experimental Example 4, Base 0.28) [pmol] | cAMP production increasing activity [3, 5] [pmol] | cAMP production increasing activity (%) (NCI-H716 cells) | cAMP producing activity (control %) (guinea pig TGR5)
1 | CC(=O)NCc1cccc(C2OC(CC(=O)NCc3ccccc3F)C(=O)N(CC(C)(C)C)c3ccc(Cl)cc32)c1 (single isomer, unassigned; (+)) [Reference Example 33, (+)-2-[3,5-trans-5-[3-(acetylaminomethyl)phenyl]-7-chloro-1-neopentyl-2-oxo-1,2,3,5-tetrahydro-4,1-benzoxazepin-3-yl]-N-(2-fluorobenzyl)acetamide] | – | – | 201 % relative to non-addition | 92 | < 0.1 | – | – | – | –
2 | FC(F)(F)c1cc(CN2CCOc3nccc(-c4ccccc4)c3C2)cc(C(F)(F)F)c1 [Example 9C, 4-[3,5-bis(trifluoromethyl)benzyl]-6-phenyl-2,3,4,5-tetrahydropyrido[3,2-f][1,4]oxazepine] | 96 | 99 | – | 112 | – | – | 0.2 | 109 | –
3 | FC(F)(F)c1cc(CN2CCCOc3nccc(-c4ccccc4)c3C2)cc(C(F)(F)F)c1.FC(F)(F)c1cc(CN2CCCOc3nccc(-c4ccccc4)c3C2)cc(C(F)(F)F)c1.O=S(=O)(O)O [Example 18C, 5-[3,5-bis(trifluoromethyl)benzyl]-7-phenyl-3,4,5,6-tetrahydro-2H-pyrido[2,3-b][1,5]oxazocine ½sulfate] | 112 | 106 | – | – | – | – | 0.17 | – | –
4 | O=S(=O)(c1cc(C(F)(F)F)cc(C(F)(F)F)c1)N1CCCOc2nccc(-c3ccccc3)c2C1 [Example 23C, 5-{[3,5-bis(trifluoromethyl)phenyl]sulfonyl}-7-phenyl-3,4,5,6-tetrahydro-2H-pyrido[2,3-b][1,5]oxazocine] | – | – | 133 % relative to non-addition | 148 | – | – | – | – | 119
5 | CC(c1cc(C(F)(F)F)cc(C(F)(F)F)c1)N1CCOc2nccc(-c3ccccc3)c2C1.Cl (stereo not drawn) [Example 33C, 4-{1-[3,5-bis(trifluoromethyl)phenyl]ethyl}-6-phenyl-2,3,4,5-tetrahydropyrido[3,2-f][1,4]oxazepine hydrochloride] | – | – | 214 % relative to non-addition | 149 | < 0.1 | – | – | – | 111

More lines, main results first:

Row | cAMP production increasing activity (control %) (human TGR5 [4]) | cAMP production increasing activity (control %) (rabbit TGR5) | SMILES | GLP-1 (% relative to non-addition) [1] | activation at 2 µM (rat TGR5) [%] | EC50 (human TGR5 [2]) [µM] | cAMP production increasing activity ([3]; Experimental Example 4, Base 0.28) [pmol] | cAMP production increasing activity [3, 5] [pmol] | cAMP production increasing activity (%) (NCI-H716 cells) | cAMP producing activity (control %) (guinea pig TGR5)
6 | 113 | 71.2 | CC(C)(C)CN1C(=O)C(CC(=O)NCc2ccccc2F)N(C(=O)c2ccncc2)Cc2ccccc21 (stereo not drawn) [Example 1B, N-(2-fluorobenzyl)-2-(4-isonicotinoyl-1-neopentyl-2-oxo-2,3,4,5-tetrahydro-1H-1,4-benzodiazepin-3-yl)acetamide] | – | – | – | 0.23 | – | – | –
7 | 100 | 116 | O=C(c1cc(C(F)(F)F)cc(C(F)(F)F)c1)N1CCOc2nccc(-c3ccccc3)c2C1 [Example 14C, 4-[3,5-bis(trifluoromethyl)benzoyl]-6-phenyl-2,3,4,5-tetrahydropyrido[3,2-f][1,4]oxazepine] | – | – | – | – | 0.17 | – | –
